Measured values as given in US20230128609A1, “TUMOR SUPPRESSION BY MODULATION OF NON-CANONICAL AUTOPHAGY (LAP) IN MYELOID CELLS” (St. Jude Children's Research Hospital, priority 2017, published 2023).

Test system: RAW cells expressing Venus-LC3
Test: Evaluation of LAP, as assessed by LC3-II lipidation upon zymozan stimulation, by flow cytometry
Format: cell-based
Conditions: RAW cells expressing Venus-LC3 stimulated with zymozan-Alexa594 (ZYM) for 1 h, treatment started 30 min prior to stimulation, digitonin-permeabilized cells
Method: (FIG. 9D) Evaluation of LAP, as assessed by LC3-II lipidation upon stimuli. RAW cells expressing Venus-LC3 were stimulated with ZYM for 1 h, treated with digitonin and accumulation of lipidated LC3-II in permeabilized cells was measured by flow cytometry. (FIG. 9E) Quantification of FIG. 9D, in MFI. […] Flow cytometry analysis. At the indicated time points, GFP-LC3+ cells can be collected, washed once with FACS buffer, and permeabilized with digitonin (Sigma, 200 g ml-1) for 15 min on ice. Cells can be washed 3 times with FACS buffer and analysed by flow cytometry for membrane-bound GFP—LC3—II.

c1ccc2c(c1)[I+]c1ccccc1-2 [DPI, diphenyleneiodonium]
LAP activity in vitro (LC3-II lipidation upon stimuli): abrogates LAP activity

COc1cc(C(C)=O)ccc1O [apocynin]
LAP activity in vitro (LC3-II lipidation upon stimuli): abrogates LAP activity
